# Results published in patent US9273095B2, “Antibiotic peptide and preparation method therefor and application therefor” (priority 2011, dated 2016).
# Non-standard residues stand in square brackets, D forms with d. Residues, ends and D or L forms follow the SMILES beside them.
# How the values were obtained:
# [1] = system: Enterococcus faecium; assay: microbe, parasite or virus in culture; type: cell-based
# Procedure: The experimental strains are 37 standard strains preserved in lab and clinical isolated bacteria, including drug-resistant bacteria and quality-control bacteria selecting Staphylococcus aureus ATCC29213, Enterococcus faecalis ATCC29212, Escherichia coli ATCC25922, Pseudomonas aeruginosa ATCC27853 and klebsiella pneumoniae ATCC700603.
# (1) Sensitivity test is conducted with two-fold agar dilution method and Denlay multipoint inoculator. Test bacteria are cultured with nutrient broth and brain heart infusion.
# (2) The drug is double diluted into different concentration with MH broth after dissolved and then placed in the plate respectively.
# (4) After solidification of the culture medium in the plate, test bacteria (10^4CFU/point) are inoculated by multipoint inoculator and cultured for 18 hours at constant 35° C. Then observe the results.
# [2] = system: Salmonella typhimurium; assay: microbe, parasite or virus in culture; type: cell-based; details: Salmonella typhimurium
# Outline: (§1)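 Agar dilution, MH agar, drug 0.03, 0.06, 0.125 … 128 μg/ml final; inoculum 10^4CFU/point via multipoint inoculator; 35° C, 18 h. Standard and clinical isolates, drug-resistant strains included.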
# [3] = system: Typhoid bacillus H901; assay: microbe, parasite or virus in culture; type: cell-based
# Outline: as §1
# [4] = system: Serratia marcescens; assay: microbe, parasite or virus in culture; type: cell-based; details: Serratia marcescens 41002
# Outline: as §1
# [5] = system: Proteus vulgaris; assay: microbe, parasite or virus in culture; type: cell-based; details: Proteus vulgaris 56
# Outline: as §1
# [6] = system: Staphylococcus aureus; assay: microbe, parasite or virus in culture; type: cell-based
# Outline: (§2)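 Two-fold agar dilution MIC in MH agar at final drug concentrations 0.03-128 μg/ml. Standard and clinical strains, including drug-resistant isolates, inoculated at 10^4 CFU/point by multipoint inoculator. Plates incubated 18 hours at 35° C before reading.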
# [7] = system: Pseudomonas aeruginosa; assay: microbe, parasite or virus in culture; type: cell-based
# Outline: as §2
# [8] = system: Enterobacter cloacae; assay: microbe, parasite or virus in culture; type: cell-based; details: Enterobacter cloacae 45301
# Outline: as §1
# [9] = system: Shigella sonnei; assay: microbe, parasite or virus in culture; type: cell-based; details: Shigella sonnei strains 51592
# Outline: as §1
# [10] = system: Shigella flexneri; assay: microbe, parasite or virus in culture; type: cell-based
# Outline: as §1
# [11] = system: Acinetobacter calcoaceticus; assay: microbe, parasite or virus in culture; type: cell-based; details: Acinetobacter calcoaceticus25001
# Outline: as §1
# [12] = system: Enterobacter aerogenes; assay: microbe, parasite or virus in culture; type: cell-based; details: Enterobacter aerogenes 45102
# Outline: as §1
# [13] = system: Escherichia coli; assay: microbe, parasite or virus in culture; type: cell-based
# Outline: as §2
# [14] = system: Feilaoti citrobacter; assay: microbe, parasite or virus in culture; type: cell-based; details: Feilaoti citrobacter 48001
# Outline: as §1
# [15] = system: Staphylococcus epidermidis; assay: microbe, parasite or virus in culture; type: cell-based
# Outline: as §2
# [16] = system: candida glabrata; assay: microbe, parasite or virus in culture; type: cell-based
# Outline: (§3)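 Broth dilution in RPMI-1640 with PL-13 peptide diluted 10-fold from stock; inoculum 1-3×10^3 CFU/ml in the test. Strains activated at 60% humidity, 25 °C for aspergillus or 37 °C for candida; living and blank control wells included.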
# [17] = system: aspergillus flavous; assay: microbe, parasite or virus in culture; type: cell-based
# Outline: as §3
# [18] = system: aspergillus fumigatus; assay: microbe, parasite or virus in culture; type: cell-based
# Outline: as §3
# [19] = system: candida tropicalis; assay: microbe, parasite or virus in culture; type: cell-based
# Outline: as §3
# [20] = system: candida albicans; assay: microbe, parasite or virus in culture; type: cell-based
# Outline: as §3
# [21] = Circular dichroism (CD) spectroscopy, helical structure; type: physicochemical
# Procedure: The mean residue molar ellipticities of peptides are determined by circular dichroism (CD) spectroscopy, using a Jasco J-720 spectropolarimeter (Jasco, Easton, Md.), at 25° C. under benign conditions (50 mM KH2PO4/K2HPO4/100 mM KCl, pH7), as well as in the presence of an α-helix inducing solvent, 2,2,2-trifluoroethanol (TFE) (50 mM KH2PO4/K2HPO4/100 mM KCL, pH 7 buffer/50% TFE). A 10-fold dilution of a 500 μM stock solution of the peptide is loaded into a 0.02 cm fused silica cell and its mean residue molar ellipticity scanned from 190 to 250 nm. The values of mean residue molar ellipticities of the peptide at a wavelength of 222 nm are used to estimate the relative amount of α-helicity of the peptides.
# To determine the secondary structure of peptides in different environments, circular dichroism (CD) spectra of the peptide analogs are measured under physiologically related pH and ionic strength (100 mM KCl, 50 mM aq. PO4, pH 7 referred to as benign conditions) and also in 50% TFE to mimic the hydrophobic environment of the membrane. CD spectra of the peptide analogs are measured under benign conditions (100 mM KCl, 50 mM KH2PO4/K2HPO4, pH 7, referred to as KP buffer) and also in 50% trifluoroethanol (TFE) to mimic the hydrophobic environment of the membrane. […] However, in the presence of 50% TFE, all three L-peptides are fully folded α-helical structures with similar molar ellipticities and helicity.
# FIG. 2 illustrates graphical results of Circular dichroism (CD) spectra of peptides at pH 7.4 and 25° C., in 50 mM aq. PO4 containing 100 mM KCl, wherein KP buffer (50 mM KH2PO4, K2HPO4, 100 mM KCl, pH 7.4) mimics hydrophilic environment and KP buffer-TFE (1:1 [vol/vol]) mimics hydrophobic environment of cell membrane. The figure above represents the CD spectra of peptides in benign buffer without TFE, whilst the figure below represents CD spectra obtained in the presence of 50% TFE.
# [22] = 06-12 (VREF) Vancomycin-resistant enterococci
# [23] = 08-49(MSSA) Meticillin susceptible staphylococcus aureus
# [24] = 08-52(MRSA) Methicillin-resistant staphylococcus aureus
# [25] = Staphylococcus aureus ATCC25923
# [26] = Staphylococcus aureus ATCC29213
# [27] = strain 15 (listed under Staphylococcus aureus)
# [28] = Pseudomonas aeruginosa TCC27853
# [29] = strain 17 (listed under Pseudomonas aeruginosa)
# [30] = 08-17 (MSSE) Meticillin susceptible staphylococcus epidermidis
# [31] = 08-18 (MRSE) Methicillin-resistant staphylococcus epidermidis
# [32] = (MRSE) Methicillin-resistant Staphylococcus epidermidis ATCC12228
# [33] = JLC 30506 aspergillus fumigatus
# [34] = JLC 30883 aspergillus fumigatus
Molecule,"MIC [1, 22] [µM]",MIC ([1]; Enterococcus faecium 06-1) [µM],MIC [2] [µM],MIC [3] [µM],MIC [4] [µM],MIC [5] [µM],"MIC [6, 23] [µM]","MIC [6, 24] [µM]","MIC [6, 25] [µM]","MIC [6, 26] [µM]","MIC [6, 27] [µM]","MIC [7, 28] [µM]","MIC [7, 29] [µM]",MIC [8] [µM],MIC [9] [µM],MIC [10] [µM],MIC [11] [µM],MIC [12] [µM],MIC ([13]; 272(TEM-88)) [µM],MIC ([13]; 274 (TEM-15)) [µM],further results
CC[C@@H](C)[C@@H](NC(=O)[C@@H](CCCCN)NC(=O)[C@@H](CO)NC(=O)[C@@H](Cc1ccccc1)NC(=O)[C@@H](CC(C)C)NC(=O)[C@@H](CCCCN)NC(=O)[C@@H](CCC(=O)O)NC(=O)[C@@H](CC(C)C)NC(=O)[C@@H](CCCNC(=N)N)NC(=O)[C@@H](CCCCN)NC(=O)[C@@H](Cc1ccccc1)NC(C)=O)C(=O)N[C@H](Cc1c[nH]c2ccccc12)C(=O)N[C@H](CC(N)=O)C(=O)N[C@H](Cc1c[nH]c2ccccc12)C(=O)N[C@H](CCCCN)C(N)=O [PL-17] (Ac-[dF][dK][dR][dL][dE][dK][dL][dF][dS][dK][dI][dW][dN][dW][dK]-NH2),1.7,10.7,1.3,0.7,1.3,5.3,0.7,5.3,0.3,0.3,0.3,1.3,2.7,1.3,0.3,0.3,1.3,1.3,0.3,0.3,"MIC ([13]; 276 (TEM-52)): 0.7 µM; MIC [14]: 2.7 µM; MIC [15, 30]: 1.0 µM; MIC [15, 31]: 1.0 µM; MIC [15, 32]: 1.0 µM; Minimal inhibitory concentration ([16]; JLC 30367 candida glabrata): 4 µg/mL; Minimal inhibitory concentration ([16]; JLC 31512 candida glabrata): 8 µg/mL; Minimal inhibitory concentration ([17]; JLC 30784 aspergillus flavous): >64 µg/mL; Minimal inhibitory concentration ([17]; JLC 40437 aspergillus flavous): >64 µg/mL; Minimal inhibitory concentration [18, 33]: 32 µg/mL; Minimal inhibitory concentration [18, 34]: 32 µg/mL; Minimal inhibitory concentration ([19]; JLC 31379 candida tropicalis): 2 µg/mL; Minimal inhibitory concentration ([19]; JLC 31384 candida tropicalis): 2 µg/mL; Minimal inhibitory concentration ([20]; JLC 33659 candida albicans): 4 µg/mL; Minimal inhibitory concentration ([20]; JLC 33660 candida albicans): 4 µg/mL"
Ac-FKRLEKLFSKIWNWK-NH2 [PL-12],1.3,5.3,5.3,5.3,0.03,0.3,0.7,1.3,1.3,1.3,1.3,5.3,2.7,0.3,2.7,2.7,0.03,0.03,0.7,1.3,"MIC ([13]; 276 (TEM-52)): 1.3 µM; MIC [14]: 5.3 µM; MIC [15, 30]: 2.7 µM; MIC [15, 31]: 1.3 µM; MIC [15, 32]: 1.3 µM; 50% TFE % helix ([21]; 50% TFE, relative to ellipticity (100%) of reference peptide in 50% TFE): 93.8%; secondary structure by CD (in words) ([21]; KP buffer (benign)): only partially helical; Benign buffer % helix ([21]; benign buffer, relative to ellipticity (100%) of reference peptide in 50% TFE): 11.9%; Benign buffer [θ]222 ([21]; mean residue molar ellipticity at 222 nm, 25° C., 100 mM KCl, 50 mM PO4, pH 7.0): −3350 deg · cm^2 · dmol^−1; 50% TFE [θ]222 ([21]; mean residue molar ellipticity at 222 nm, 25° C., buffer containing 50% TFE): −26450 deg · cm^2 · dmol^−1; Minimal inhibitory concentration ([16]; JLC 30367 candida glabrata): 32 µg/mL; Minimal inhibitory concentration ([16]; JLC 31512 candida glabrata): 32 µg/mL; Minimal inhibitory concentration ([17]; JLC 30784 aspergillus flavous): >64 µg/mL; Minimal inhibitory concentration ([17]; JLC 40437 aspergillus flavous): >64 µg/mL; Minimal inhibitory concentration [18, 33]: 32 µg/mL; Minimal inhibitory concentration [18, 34]: 32 µg/mL; Minimal inhibitory concentration ([19]; JLC 31379 candida tropicalis): 4 µg/mL; Minimal inhibitory concentration ([19]; JLC 31384 candida tropicalis): 8 µg/mL; Minimal inhibitory concentration ([20]; JLC 33659 candida albicans): 16 µg/mL; Minimal inhibitory concentration ([20]; JLC 33660 candida albicans): 16 µg/mL"
